Values after ≈ are worked out from the molar mass of the structure shown. Read-outs that look alike come from different tables or passages of the source.
Assays:
Type in all cases: cell-based
[1] = system: Staphylococcus aureus (ATTC 25923); test: microbe, parasite or virus in culture
Protocol: (§1) The antimicrobial testing was conducted by TosLab A/S (Tromsø, Norway). Each compound was diluted to 1 mg/ml in water and tested in duplicates at 200, 100, 50, 35, 15, 10, 5, 2.5, 1, 0.5 μg/ml except 4n which was tested at 50, 35, 15, 10, 5, 2.5, 1, 0.5 μg/ml due to solubility problems. All tested compounds were di TFA salts.
(§2) The bacterial strains were grown in 2% Bacto Peptone water until exponential growth was achieved. […] A bacterial concentration of 2×10^6 cfu/ml was used. Both negative control (no peptide) and positive control (Gentamicin) was used for all bacterial strains. Growth or no growth was judged by the turbidity of the wells.
Staphylococcus aureus (ATTC 25923)
(§3) Antimicrobial assays: 200 μg/ml
(§4) Suitable methodologies are described in Example 1.
(§5) Each compound was tested in duplicates at 200, 100, 50, 35, 15, 10, 5, 2.5, 1, 0.5 μg/ml. All tested compounds were di-trifluoroacetic acid salts.

[2] = system: methicillin resistant Staphylococcus aureus (ATCC 33591); test: microbe, parasite or virus in culture
Protocol: as §1, §2
Methicillin resistant Staphylococcus aureus (ATCC 33591)
as §3, §4, §5

[3] = system: methicillin resistant Staphylococcus epidermidis (ATCC 27626); test: microbe, parasite or virus in culture
Protocol: as §1, §2
Methicillin resistant Staphylococcus epidermidis (ATCC 27626)
as §3, §4, §5

[4] = system: Escherichia coli (ATTC 25922); test: microbe, parasite or virus in culture; settings: for MIC E. coli: Example 1, di TFA salts, highest concentration tested 200 μg/ml
Protocol: as §1, §2
Escherichia coli (ATTC 25922)
as §3, §4, §5

human red blood cells = test: cells; settings: for EC50 RBC: highest concentration tested 1000 μg/ml; for EC50: red cells of human
Protocol: The hemolytic testing against human erythrocytes was conducted by Lytix Biopharma A/S (Tromso, Norway). Each compound was tested from a concentration of 1 mg/ml and lower, except 4k and 4n which was only tested up to 0.5 mg/ml due to solubility problems. 8 mL of blood was collected from adult healthy male donors. The blood was divided equally and distributed in a commercial available EDTA containing test tube (BD vacutainer, 7.2 mg K2 EDTA) and in a 10 mL reaction vial containing 40 μL of a heparin solution (1000 U/mL in 0.9% sodium chloride). After 30 minutes the hematocrit of the EDTA treated blood was determined. The heparinized blood was centrifuged for 10 minutes at 1500 rpm and the supernatant removed. Subsequently the RBCs were washed with prewarmed PBS three times, and diluted to 10% hematocrit. The compounds dissolved in PBS (concentration 1 μg/mL to 1000 µg/mL) and the erythrocytes were incubated under agitation at 37° C. for one hour. A positive control with an end concentration of 0.1% TRITON X-100 (nonionic surfactant) and a negative control containing pure PBS buffer were included. The samples were centrifuged (4000 rpm) for 5 minutes and the absorption of the supernatant was measured at 405 nm. The values given in Table 1A correspond to 50% hemolysis.
The plasma fraction of heparinized human blood was first removed by centrifugation and three additional washing steps with 37° C. pre-warmed phosphate buffered saline (PBS). Subsequently, the human RBC were diluted to 10% hematocrit and the β^2,2-amino acid derivatives were dissolved in PBS providing concentrations ranging from 1-1000 μg/mL. The diluted RBC were added to the compound solutions to a final erythrocyte concentration of 1% v/v. PBS and TRITON X-100 (non-ionic surfactant), in a final concentration of 0.1% v/v, were included as negative and positive control. After 1 hour agitated incubation at 37° C. the samples were centrifuged at 4000 rpm for 5 min. Release of hemoglobin was determined by measuring the absorbance of the supernatant at 405 nm. Hemolytic activity was calculated as the ratio of treated sample with β^2,2-amino acid derivative and tenside treated sample according to the formula: […]

[5] = Staphylococcus aureus, Example 2, values separated by / are repeat tests, read-out: Antimicrobial potency (MIC) S. aureus
[6] = Staphylococcus aureus, ATCC 33591 / MRSA, Example 2, values separated by / are repeat tests, read-out: Antimicrobial potency (MIC) MRSA
[7] = Staphylococcus epidermidis, ATCC 27626 / MRSE, Example 2, values separated by / are repeat tests, read-out: Antimicrobial potency (MIC) MRSE
[8] = Escherichia coli, Example 2, values separated by / are repeat tests, read-out: Antimicrobial potency (MIC) E. coli
[9] = ATTC 25923, read-out: MIC S. aureus
[10] = ATCC 33591, read-out: MIC MTRSA
[11] = ATTC 25922, read-out: MIC E. coli
[12] = Example 1, 50% hemolysis of human red blood cells

SMILES	MIC [1, 9] [µM]	MIC ([3]; ATCC 27626, read-out: MIC MRSE) [µM]	MIC [4, 11] [µM]	MIC MRSA ([2]; ATCC 33591) [µM]	MBC S. aureus ([1]; ATTC 25923) [µM]	MBC MRSA ([2]; ATCC 33591) [µM]	MBC MRSE ([3]; ATCC 27626) [µM]	MBC E. coli ([4]; ATTC 25922) [µM]	MIC E. coli ([4]; ATTC 25922)	EC50 RBC (human red blood cells; [12])	also measured
CCCC(CN)(CCC)C(=O)NCCN [Compound 1, N-(2-aminoethyl)-2-(aminomethyl)-2-propyl-pentanamide]											MIC [1, 5]: > 200 µg/mL; MIC [2, 6]: > 200 µg/mL; MIC [3, 7]: > 200 µg/mL; MIC [4, 8]: > 200 µg/mL
CN(C)CCN1CCN(C(=O)C(CN)(Cc2ccc(C(F)(F)F)cc2)Cc2ccc(C(F)(F)F)cc2)CC1 [Compound 4b]			129	150 (≈ 81.7 µg/mL)	301 (≈ 164 µg/mL)	150 (≈ 81.7 µg/mL)	75 (≈ 40.8 µg/mL)	>301	— (The notation “—”denotes no detectable activity (MIC or EC50) within the concentration range tested.)	— (The notation “—”denotes no detectable activity (MIC or EC50) within the concentration range tested.)	Therapeutic index S. aureus ([1]; ATTC 25923): 25; Therapeutic index MRSA ([2]; ATCC 33591): 172; MIC [2, 10]: 6.5 µM; Therapeutic index MRSE ([3]; ATCC 27626): 17; Therapeutic index E. coli ([4]; ATTC 25922): 8.6; EC50 (human red blood cells): 1120 µM
N=C(N)NCCC[C@H](NC(=O)C(CN)(CCc1ccccc1)CCc1ccccc1)C(N)=O [Compound 4e]	147	74		147 (≈ 66.5 µg/mL)	147 (≈ 66.5 µg/mL)	147 (≈ 66.5 µg/mL)	74 (≈ 33.5 µg/mL)	>294	— (The notation “—”denotes no detectable activity (MIC or EC50) within the concentration range tested.)	— (The notation “—”denotes no detectable activity (MIC or EC50) within the concentration range tested.)	
CC(C)c1ccc(CC(CN)(Cc2ccc(C(C)C)cc2)C(=O)N[C@@H](CCCNC(=N)N)C(N)=O)cc1 [Compound 4j]	10.2	6.8	136	6.8 (≈ 3.46 µg/mL)	6.8 (≈ 3.46 µg/mL)	6.8 (≈ 3.46 µg/mL)	6.8 (≈ 3.46 µg/mL)	136 (≈ 69.2 µg/mL)			EC50 (human red blood cells): 386 µM
Cc1cc(C)cc(CC(CN)(Cc2cc(C)cc(C)c2)C(=O)N2CCN(CCN(C)C)CC2)c1 [Compound 35, 3-amino-1-(4-(2-(dimethylamino)ethyl)piperazin-1-yl)-2,2-bis(3,5-dimethylbenzyl)propan-1-one]											MIC [1, 5]: 50 µg/mL; MIC [2, 6]: 50 µg/mL; MIC [3, 7]: 35 µg/mL; MIC [4, 8]: 100 µg/mL

Continued, in another order:

MIC [1, 9] [µM]	MIC ([3]; ATCC 27626, read-out: MIC MRSE) [µM]	MIC [4, 11] [µM]	MIC MRSA ([2]; ATCC 33591) [µM]	SMILES	MBC S. aureus ([1]; ATTC 25923) [µM]	MBC MRSA ([2]; ATCC 33591) [µM]	MBC MRSE ([3]; ATCC 27626) [µM]	MBC E. coli ([4]; ATTC 25922) [µM]	MIC E. coli ([4]; ATTC 25922)	EC50 RBC (human red blood cells; [12])	also measured
289	72	289		CN(C)CCN1CCN(C(=O)C(CN)(CCCc2ccccc2)CCCc2ccccc2)CC1 [Compound 4a]	>360	>360	>360	>360	— (The notation “—”denotes no detectable activity (MIC or EC50) within the concentration range tested.)	— (The notation “—”denotes no detectable activity (MIC or EC50) within the concentration range tested.)	MIC S. aureus ([1]; Example 1, ATTC 25923, di TFA salts, highest concentration tested 200 μg/ml): — (The notation “—”denotes no detectable activity (MIC or EC50) within the concentration range tested.); MIC [2, 10]: 72 µM; MIC MRSA ([2]; Example 1, ATCC 33591, di TFA salts, highest concentration tested 200 μg/ml): — (The notation “—”denotes no detectable activity (MIC or EC50) within the concentration range tested.); MIC MRSE ([3]; Example 1, ATCC 27626, di TFA salts, highest concentration tested 200 μg/ml): — (The notation “—”denotes no detectable activity (MIC or EC50) within the concentration range tested.); EC50 RBC (human red blood cells; Example 4, hemolytic activity, human red blood cells): — (The notation “—” denotes no detectable activity (MIC or EC50) within the concentration range tested.)
49	35		49 (≈ 23.6 µg/mL)	N=C(N)NCCC[C@H](NC(=O)C(CN)(CCCc1ccccc1)CCCc1ccccc1)C(N)=O [Compound 4f]	49 (≈ 23.6 µg/mL)	49 (≈ 23.6 µg/mL)	49 (≈ 23.6 µg/mL)	>282	— (The notation “—”denotes no detectable activity (MIC or EC50) within the concentration range tested.)	— (The notation “—”denotes no detectable activity (MIC or EC50) within the concentration range tested.)	

From US8809280B2, “Therapeutic peptides” (Lytix Biopharma AS, priority 2009, dated 2014)
